Results from US20110166121A1 (LG LIFE SCIENCES LTD., priority 2008, published 2011).

Test system: Human platelet aggregation caused by ADP
Assay: Inhibition of ADP-induced platelet aggregation (Mimic-human PRP)
Assay type: cell-based
Details: 20 μM ADP, human platelet concentrate diluted with PPP, absorption at 595 nm
In short: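 Human PRP diluted with PPP to 3–4×10^8 platelets/mL was preincubated 20 min at room temperature with compound (0.01–30 μM, DMSO), then stimulated with 20 μM ADP. Aggregation read as A595 increase at 3 min versus 0 and 20 μM ADP controls; Ki from sigmoidal non-linear regression.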

Row | SMILES | Ki [nM]
1 | CCCc1cc2c(N3CCn4c(nnc4C(F)(F)F)C3)nc(-n3cc(N)cn3)nc2s1 [Example 9-56, 1-[6-Propyl-4-(3-trifluoromethyl-5,6-dihydro-8H-[1,2,4]triazolo[4,3-a]pyrazin-7-yl)-thieno[2,3-d]pyrimidin-2-yl]-1H-pyrazol-4-ylamine] | 30
2 | CCCc1cc2c(N3CCn4c(nnc4C(F)(F)F)C3)nc(-n3cc(NC(C)=O)cn3)nc2s1 [Example 9-57, N-{1-[6-Propyl-4-(3-trifluoromethyl-5,6-dihydro-8H-[1,2,4]triazolo[4,3-a]pyrazin-7-yl)-thieno[2,3-d]pyrimidin-2-yl]-1H-pyrazol-4-yl}-acetamide] | 410
3 | CCCc1cc2c(N3CCn4c(nnc4C(F)(F)F)C3)nc(Nc3cn[nH]c3)nc2s1 [Example 9-58, [6-Propyl-4-(3-trifluoromethyl-5,6-dihydro-8H-[1,2,4]triazolo[4,3-a]pyrazin-7-yl)-thieno[2,3-d]pyrimidin-2-yl]-(1H-pyrazol-4-yl)-amine] | 22
4 | CCCc1cc2c(N3CCn4c(nnc4C(F)(F)F)C3=O)nc(OCCC(=O)O)nc2s1 [Example 9-59, 3-[4-(8-Oxo-3-trifluoromethyl-5,6-dihydro-8H-[1,2,4]triazolo[4,3-a]pyrazin-7-yl)-6-propyl-thieno[2,3-d]pyrimidin-2-yloxy]-propionic acid] | > 10000
5 | CCC(=O)c1cc2c(N3CCn4c(nnc4C(F)(F)F)C3)nc(OCCC(=O)O)nc2s1 [Example 9-61, 3-[6-Propionyl-4-(3-trifluoromethyl-5,6-dihydro-8H-[1,2,4]triazolo[4,3-a]pyrazin-7-yl)-thieno[2,3-d]pyrimidin-2-yloxy]-propionic acid] | > 10000
6 | CCCCNC(=O)[C@H]1CCN(c2nc(N3CCn4c(nnc4C(F)(F)F)C3)c3cc(CCC)sc3n2)C1 [Example 9-62, (S)-1-[6-Propyl-4-(3-trifluoromethyl-5,6-dihydro-8H-[1,2,4]triazolo[4,3-a]pyrazin-7-yl)-thieno[2,3-d]pyrimidin-2-yl]-pyrrolidine-3-carboxylic acid butylamide] | 400
7 | CCCCN(C)C(=O)[C@H]1CCN(c2nc(N3CCn4c(nnc4C(F)(F)F)C3)c3cc(CCC)sc3n2)C1 [Example 9-63, (S)-1-[6-Propyl-4-(3-trifluoromethyl-5,6-dihydro-8H-[1,2,4]triazolo[4,3-a]pyrazin-7-yl)-thieno[2,3-d]pyrimidin-2-yl]-pyrrolidine-3-carboxylic acid butyl-methyl-amide] | 2000
8 | CCCc1cc2c(N3CCn4c(nnc4C(F)(F)F)C3)nc(N3CC[C@H](C(=O)NC4CCCC4)C3)nc2s1 [Example 9-64, (S)-1-[6-Propyl-4-(3-trifluoromethyl-5,6-dihydro-8H-[1,2,4]triazolo[4,3-a]pyrazin7-yl)-thieno[2,3-d]pyrimidin-2-yl]-pyrrolidine-3-carboxylic acid cyclopentylamide] | 1400
9 | CCCc1cc2c(N3CCn4c(nnc4C(F)(F)F)C3)nc(N3CC[C@H](C(=O)N(C)C4CCCCC4)C3)nc2s1 [Example 9-65] | 9300
10 | CCCc1cc2c(N3CCn4c(nnc4C(F)(F)F)C3)nc(OCCC(=O)NC)nc2s1 [Example 9-66, N-Methyl-3-[6-propyl-4-(3-trifluoromethyl-5,6-dihydro-8H-[1,2,4]triazolo[4,3-a]pyrazin-7-yl)-thieno[2,3-d]pyrimidin-2-yloxy]-propionamide] | 5.2
11 | CCCc1cc2c(N3CCn4c(nnc4C(F)(F)F)C3)nc(OCCC(=O)N(C)C)nc2s1 [Example 9-67, N,N-Dimethyl-3-[6-propyl-4-(3-trifluoromethyl-5,6-dihydro-8H-[1,2,4]triazolo[4,3-a]pyrazin-7-yl)-thieno[2,3-d]pyrimidin-2-yloxy]-propionamide] | 97
12 | CCCc1cc2c(N3CCn4c(nnc4C(F)(F)F)C3)nc(OCCC(=O)N3CCCC3)nc2s1 [Example 9-68, 3-[6-Propyl-4-(3-trifluoromethyl-5,6-dihydro-8H-[1,2,4]triazolo[4,3-a]pyrazin-7-yl)-thieno[2,3-d]pyrimidin-2-yloxy]-1-pyrrolidin-1-yl-propan-1-one] | 260
13 | CCCc1cc2c(N3CCn4c(nnc4C(F)(F)F)C3)nc(OCCC(=O)NC3CCCC3)nc2s1 [Example 9-69, N-Cyclopentyl-3-[6-propyl-4-(3-trifluoromethyl-5,6-dihydro-8H-[1,2,4]triazolo[4,3-a]pyrazin-7-yl)-thieno[2,3-d]pyrimidin-2-yloxy]-propionamide] | 550
14 | CCCc1cc2c(N3CCn4c(nnc4C(F)(F)F)C3)nc(OCCC(N)=O)nc2s1 [Example 9-70, 3-[6-Propyl-4-(3-trifluoromethyl-5,6-dihydro-8H-[1,2,4]triazolo[4,3-a]pyrazin-7-yl)-thieno[2,3-d]pyrimidin-2-yloxy]-propionamide] | 6
15 | CCCc1cc2c(N3CCn4c(nnc4C(F)(F)F)C3)nc(OCCC#N)nc2s1 [Example 9-71, 3-[6-Propyl-4-(3-trifluoromethyl-5,6-dihydro-8H-[1,2,4]triazolo[4,3-a]pyrazin-7-yl)-thieno[2,3-d]pyrimidin-2-yloxy]-propionitrile] | 0.7
16 | CCCc1cc2c(N3CCn4c(nnc4C(F)(F)F)C3)nc(N3CC[C@H](C(=O)NN)C3)nc2s1 [Example 9-72, (S)-1-[6-Propyl-4-(3-trifluoromethyl-5,6-dihydro-8H-[1,2,4]triazolo[4,3-a]pyrazin-7-yl)-thieno[2,3-d]pyrimidin-2-yl]-pyrrolidine-3-carboxylic acid hydrazide] | 0.6
17 | CCCc1cc2c(N3CCn4c(nnc4C(F)(F)F)C3)nc(OCCC(=O)NN)nc2s1 [Example 9-73, 3-[6-Propyl-4-(3-trifluoromethyl-5,6-dihydro-8H-[1,2,4]triazolo[4,3-a]pyrazin-7-yl)-thieno[2,3-d]pyrimidin-2-yloxy]-propionic acid hydrazide] | 16
18 | CCCc1cc2c(N3CCn4c(nnc4C(F)(F)F)C3)nc(OC(C)CNC=O)nc2s1 (centres unmarked) [Example 9-74, N-{2-[6-Propyl-4-(3-trifluoromethyl-5,6-dihydro-8H-[1,2,4]triazolo[4,3-a]pyrazin-7-yl)-thieno[2,3-d]pyrimidin-2-yloxy]-propyl}-formamide] | 3.8
19 | CCCc1cc2c(N3CCn4c(nnc4C(F)(F)F)C3)nc(OCC(C)NC=O)nc2s1 (centres unmarked) [Example 9-75, N-{1-Methyl-2-[6-propyl-4-(3-trifluoromethyl-5,6-dihydro-8H-[1,2,4]triazolo[4,3-a]pyrazin-7-yl)-thieno[2,3-d]pyrimidin-2-yloxy]-ethyl}-formamide] | 3
20 | CCCc1cc2c(N3CCn4c(nnc4C(F)(F)F)C3)nc(OC(C)CNC(C)=O)nc2s1 (centres unmarked) [Example 9-76, N-{2-[6-Propyl-4-(3-trifluoromethyl-5,6-dihydro-8H-[1,2,4]triazolo[4,3-a]pyrazin-7-yl)-thieno[2,3-d]pyrimidin-2-yloxy]-propyl}-acetamide] | 22
21 | CCCc1cc2c(N3CCn4c(nnc4C(F)(F)F)C3)nc(OCC(C)NC(C)=O)nc2s1 (centres unmarked) [Example 9-77, N-{1-Methyl-2-[6-propyl-4-(3-trifluoromethyl-5,6-dihydro-8H-[1,2,4]triazolo[4,3-a]pyrazin-7-yl)-thieno[2,3-d]pyrimidin-2-yloxy]-ethyl}-acetamide] | 6
22 | CCCc1cc2c(N3CCn4c(nnc4C(F)(F)F)C3)nc(OCC(C)(C)NC=O)nc2s1 [Example 9-78, N-{1,1-Dimethyl-2-[6-propyl-4-(3-trifluoromethyl-5,6-dihydro-8H-[1,2,4]triazolo[4,3-a]pyrazin-7-yl)-thieno[2,3-d]pyrimidin-2-yloxy]-ethyl}-formamide] | 25
23 | CCCc1cc2c(N3CCn4c(nnc4C(F)(F)F)C3)nc(OCC(C)(C)NC(C)=O)nc2s1 [Example 9-79, N-{1,1-Dimethyl-2-[6-propyl-4-(3-trifluoromethyl-5,6-dihydro-8H-[1,2,4]triazolo[4,3-a]pyrazin-7-yl)-thieno[2,3-d]pyrimidin-2-yloxy]-ethyl}-acetamide] | 3.4
24 | CCCc1cc2c(N3CCn4c(nnc4C(F)(F)F)C3)nc(OC(C)CNC(=O)OC)nc2s1 (centres unmarked) [Example 9-80, {2-[6-Propyl-4-(3-trifluoromethyl-5,6-dihydro-8H-[1,2,4]triazolo[4,3-a]pyrazin-7-yl)-thieno[2,3-d]pyrimidin-2-yloxy]-propyl}-carbamic acid methyl ester] | 15
25 | CCCc1cc2c(N3CCn4c(nnc4C(F)(F)F)C3)nc(OCC(C)NC(=O)OC)nc2s1 (centres unmarked) [Example 9-81, {1-Methyl-2-[6-propyl-4-(3-trifluoromethyl-5,6-dihydro-8H-[1,2,4]triazolo[4,3-a]pyrazin-7-yl)-thieno[2,3-d]pyrimidin-2-yloxy]-ethyl}-carbamic acid methyl ester] | 7
26 | CCCc1cc2c(N3CCn4c(nnc4C(F)(F)F)C3)nc(OCC(C)(C)NC(=O)OC)nc2s1 [Example 9-82, {1,1-Dimethyl-2-[6-propyl-4-(3-trifluoromethyl-5,6-dihydro-8H-[1,2,4]triazolo[4,3-a]pyrazin-7-yl)-thieno[2,3-d]pyrimidin-2-yloxy]-ethyl}-carbamic acid methyl ester] | 5
27 | CCCc1cc2c(N3CCn4c(nnc4C(F)(F)F)C3)nc(OCCF)nc2s1 [Example 9-83, 7-[2-(2-Fluoro-ethoxy)-6-propyl-thieno[2,3-d]pyrimidin-4-yl]-3-trifluoromethyl-5,6,7,8-tetrahydro-[1,2,4]triazolo[4,3-a]pyrazine] | 0.3
28 | CCCc1cc2c(N3CCn4c(nnc4C(F)(F)F)C3)nc(OCC(F)(F)F)nc2s1 [Example 9-84, 7-[6-Propyl-2-(2,2,2-trifluoro-ethoxy)-thieno[2,3-d]pyrimidin-4-yl]-3-trifluoromethyl-5,6,7,8-tetrahydro-[1,2,4]triazolo[4,3-a]pyrazine] | 680
29 | CCCc1cc2c(N3CCn4c(nnc4C(F)(F)F)C3)nc(OCCCN3CCCC3=O)nc2s1 [Example 9-85, 1-{3-[6-Propyl-4-(3-trifluoromethyl-5,6-dihydro-8H-[1,2,4]triazolo[4,3-a]pyrazin-7-yl)-thieno[2,3-d]pyrimidin-2-yloxy]-propyl}-pyrrolidin-2-one] | 2000
